Data taken from ChEMBL document CHEMBL1126895, “Aminoacyl analogs of chloramphenicol: examination of the kinetics of inhibition of peptide bond formation” (J Med Chem, 1993).

System: Escherichia coli
Experiment: Tested for inhibition of puromycin reaction and reported as equilibrium constant derived from primary and secondary kinetic plots for the inhibition of peptide bond formation
Assay type: functional

Question: `NS(=O)(=O)c1ccc([C@@H](O)[C@@H](CO)NC(=O)C(Cl)Cl)cc1` [TEVENEL] was tested. Which Ki did it give?
Answer: 1700 nM

Question: With `NCC(=O)NC(CO)C(O)c1ccc([N+](=O)[O-])cc1` (stereo unspecified) as the molecule, how does the Ki read?
Answer: 5500 nM

Question: With `NC(Cc1ccccc1)C(=O)NC(CO)C(O)c1ccc([N+](=O)[O-])cc1` (stereo unspecified) as the molecule, how does the Ki read?
Answer: 18000 nM

Question: Which Ki does the source give for `O=C(N[C@H](CO)[C@H](O)c1ccc([N+](=O)[O-])cc1)C(Cl)Cl` [CHLORAMPHENICOL] here?
Answer: 700 nM

Question: How did the Ki turn out when `CS(=O)(=O)c1ccc([C@@H](O)[C@@H](CO)NC(=O)C(Cl)Cl)cc1` [THIAMPHENICOL] was run?
Answer: 400 nM

Question: With `NC(Cc1ccccc1)C(=O)NCC(=O)NC(CO)C(O)c1ccc([N+](=O)[O-])cc1` (stereo unspecified) as the molecule, how does the Ki read?
Answer: 1500 nM
